Assay [1] has as its system SW620 human colorectal carcinoma cells (mutant RAS). The assay is described as follows: SW620 xenografts, primary tumour volume T/C. In kind it is in vivo. The settings on record: 200 mg/kg po qd; ratio of average tumour volume treated/vehicle control; p<0.05. As to the method:
(§1) All procedures involving animals were approved by the Animal Welfare and Ethical Review Body of the Institute of Cancer Research and Cancer Research UK Manchester Institute in accordance with National Home Office regulations under the Animals (Scientific Procedures) Act 1986 and according to the guidelines of the Committee of the National Cancer Research Institute Tumour size was determined by caliper measurements of tumour length, width and depth and volume was calculated as volume=0.5236×length×width×depth (mm).
SW620 xenografts: NCr mice were inoculated subcutaneously in the right flank with 5×10^6 SW620 cells at 100 ul suspension per animal. Groups of 7-8 mice were assigned to treatment following stratified allocation of tumour volumes with a median size of circa 100 mm^3. […] Tumours and weights are measured twice weekly using calipers. […] Frozen samples are kept at −80 degree centigrade until being analysed and the fixed samples stained according to the desired marker.
For therapeutic efficacy assessment, the ratio of average tumour volume between compound treated and vehicle control treated (T/C) is calculated. […] The efficacy of LOX inhibitors described in this invention, as measured by T/C in a pancreatic cancer model, a colorectal cancer model and a breast cancer model is shown in Table 2 and is significant (p<0.05) for all the data presented.

Assay [2] relates to MDA-MB-231 human breast adenocarcinoma. The assay is described as follows: MDA-MB-231 xenografts, primary tumour volume T/C. Format: in vivo. The note with it: 200 mg/kg po qd, ratio of average tumour volume treated/vehicle control, p<0.05. The method, then: as §1
MDA-MB-231 xenografts. Ncr nude female mice at 6 weeks old from Charles River were injected into the third upper nipple mammary fat pad with MDA-MB-231 Luc 4×10^6 in 100 ul PB (50:50 Matrigel). When tumours reach a mean of 80 mm^3 around 10 days post cell inoculation the animals are allocated in 4 groups of 8. LOX inhibitor treatment is then administrated by oral gavage dosing, at 0.2 ml/20 g bodyweight once daily for up to 28 consecutive days. Tumours and weights are measured twice weekly using calipers and the animals can be imaged using non invasive method by bioluminescence using IVIS 200 imaging machine, weekly using 150 mg/kg luciferin administrate intraperitoneal or subcutaneous. At the end of the study the animals are culled, and samples taken, fixed or snap frozen in liquid nitrogen. Frozen samples kept at −80 degree centigrade until being analyzed and the fixed samples stained according to desired marker.
For therapeutic efficacy assessment, the ratio of average tumour volume between compound treated and vehicle control treated (T/C) is calculated. Reduction in tumour volume in the compound treated group compared to vehicle-treated control group results in T/C<1. The efficacy of LOX inhibitors described in this invention, as measured by T/C in a pancreatic cancer model, a colorectal cancer model and a breast cancer model is shown in Table 2 and is significant (p<0.05) for all the data presented.

With `CCOc1ccc(N2C[C@H]3CN(CCCC#N)C[C@@H]2C(C)(C)C3)cc1` [Example 42, 4-((1R,5S)-6-(4-ethoxyphenyl)-9,9-dimethyl-3,6-diazabicyclo[3.2.2]nonan-3-yl)butanenitrile], the “T/C SW620 human colorectal carcinoma cells (mutant RAS) - primary tumour” value in assay [1] is recorded as 0.54. Further, the response vs control in vivo at 200 mg/kg in assay [2] was determined as 41%.

The record behind these values is patent publication US12060360B2, “Lysyl oxidase inhibitors” (The Institute of Cancer Research: Royal Cancer Hospital, priority 2017, dated 2024).
